In US8436178B2, “Imidazoquinolines with immuno-modulating properties” (AstraZeneca AB, priority 2007, dated 2013):
Structures can show the parent of a compound that is named as a salt.

target: T1, human TLR7 (Homo sapiens, UniProt Q9NYK1); test: Human TLR7 assay (SEAP reporter in HEK293 cells); format: cell-based; conditions: SEAP induction in HEK293 cells expressing human TLR7, overnight incubation at 37° C., 0.1% DMSO
T1 construct: expressed in transfected cells; host or cells: HEK293 cell line stably expressing the pNiFty2-SEAP reporter plasmid; TLR7 in pUNO vector, blasticidin selection
T1 sequence (Q9NYK1 27-1049): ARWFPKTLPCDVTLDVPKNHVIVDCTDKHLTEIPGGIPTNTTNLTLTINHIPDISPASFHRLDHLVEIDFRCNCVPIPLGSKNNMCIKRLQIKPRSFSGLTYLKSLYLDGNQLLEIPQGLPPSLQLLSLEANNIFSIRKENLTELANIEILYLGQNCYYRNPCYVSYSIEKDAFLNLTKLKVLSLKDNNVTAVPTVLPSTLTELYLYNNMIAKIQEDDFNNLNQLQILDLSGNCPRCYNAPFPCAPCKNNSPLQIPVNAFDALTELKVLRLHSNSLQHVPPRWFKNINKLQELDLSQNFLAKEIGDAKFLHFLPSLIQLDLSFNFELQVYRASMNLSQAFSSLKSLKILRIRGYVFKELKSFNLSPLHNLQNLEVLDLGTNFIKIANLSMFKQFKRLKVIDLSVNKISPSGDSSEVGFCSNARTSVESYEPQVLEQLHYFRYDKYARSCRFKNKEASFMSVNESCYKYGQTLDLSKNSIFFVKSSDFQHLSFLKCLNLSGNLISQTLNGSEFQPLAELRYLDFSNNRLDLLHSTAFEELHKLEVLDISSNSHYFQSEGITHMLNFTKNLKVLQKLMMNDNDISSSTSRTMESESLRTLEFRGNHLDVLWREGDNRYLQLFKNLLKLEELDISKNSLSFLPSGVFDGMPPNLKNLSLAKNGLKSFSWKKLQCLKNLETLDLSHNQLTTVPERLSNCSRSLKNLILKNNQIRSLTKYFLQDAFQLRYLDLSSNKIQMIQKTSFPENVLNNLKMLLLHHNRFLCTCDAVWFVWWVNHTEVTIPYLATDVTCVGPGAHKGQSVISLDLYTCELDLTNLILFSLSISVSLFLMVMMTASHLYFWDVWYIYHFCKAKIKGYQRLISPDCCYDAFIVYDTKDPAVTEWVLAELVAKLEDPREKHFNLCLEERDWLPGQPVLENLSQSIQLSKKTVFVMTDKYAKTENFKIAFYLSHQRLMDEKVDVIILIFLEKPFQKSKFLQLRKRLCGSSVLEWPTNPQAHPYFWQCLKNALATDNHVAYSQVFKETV
Excerpt: The most common variant sequence of human TLR7 (represented by the EMBL sequence AF240467) was cloned into the mammalian cell expression vector pUNO and transfected into a HEK293 cell line already stably expressing the pNiFty2-SEAP reporter plasmid; integration of the reporter gene was maintained by selection with the antibiotic zeocin. Transfectants with stable TLR7 expression were selected using the antibiotic blasticidin. In this reporter cell-line, expression of secreted alkaline phosphatase (SEAP) is controlled by an NFkB/ELAM-1 composite promoter comprising five NFkB sites combined with the proximal ELAM-1 promoter. TLR signaling leads to the translocation of NFkB and activation of the promoter results in expression of the SEAP gene. TLR7-specific activation was assessed by determining the level of SEAP produced following overnight incubation of the cells at 37° C. with the standard compound in the presence of 0.1% (v/v) dimethylsulfoxide (DMSO). Concentration dependent induction of SEAP production by compounds was expressed as the concentration of compound which produced half of the maximal level of SEAP induction for that compound (pEC50).

Compound | EC50 [nM]
CCCCc1nc2c(N)nc3ccccc3c2n1CCCNCc1ccc(CC(=O)OC)cc1 [Example 1, Methyl 2-(4-((3-(4-amino-2-butyl-1H-imidazo[4,5-c]quinolin-1-yl)propylamino)methyl)phenyl)acetate] | 316
CCCCc1nc2c(N)nc3ccccc3c2n1CCCNCc1cccc(CC(=O)OC)c1 [Example 2, Methyl 2-(3-((3-(4-amino-2-butyl-1H-imidazo[4,5-c]quinolin-1-yl)propylamino)methyl)phenyl)acetate] | 398
CCOCc1nc2c(N)nc3ccccc3c2n1CC1CCN(Cc2cccc(CC(=O)OC)c2)CC1 [Example 5, di-trifluoroacetate salt] | 316
CCOCc1nc2c(N)nc3ccccc3c2n1CCCN(Cc1cccc(CC(=O)OC)c1)C(=O)CN(C)C [Example 7, Methyl 2-(3-((N-(3-(4-amino-2-(ethoxymethyl)-1H-imidazo[4,5-c]quinolin-1-yl)propyl)-2-(dimethylamino)acetamido)methyl)phenyl)acetate] | 398
CCCCc1nc2c(N)nc3ccccc3c2n1CCCN(Cc1cccc(CC(=O)OC)c1)C1CCN(C)CC1 [Example 8, Methyl 2-(3-(((3-(4-amino-2-butyl-1H-imidazo[4,5-c]quinolin-1-yl)propyl)(1-methylpiperidin-4-yl)amino)methyl)phenyl)acetate] | 316
CCCCc1nc2c(N)nc3ccccc3c2n1CCCN(Cc1ccc(CC(=O)OC)cc1)C1CCN(C)CC1 [Example 9, Methyl 2-(4-(((3-(4-amino-2-butyl-1H-imidazo[4,5-c]quinolin-1-yl)propyl)(1-methylpiperidin-4-yl)amino)methyl)phenyl)acetate] | 631
CCCCc1nc2c(N)nc3ccccc3c2n1CCCN(Cc1ccc(CC(=O)OC)cc1)C(=O)CN1CCN(C)CC1 [Example 10, Methyl 2-(4-((N-(3-(4-amino-2-butyl-1H-imidazo[4,5-c]quinolin-1-yl)propyl)-2-(4-methylpiperazin-1-yl)acetamido)methyl)phenyl)acetate] | 501
CCCCc1nc2c(N)nc3ccccc3c2n1CCCN(CCCN1CCOCC1)Cc1cccc(CC(=O)OC)c1 [Example 12, Methyl 2-(3-(((3-(4-amino-2-butyl-1H-imidazo[4,5-c]quinolin-1-yl)propyl)(3-morpholinopropyl)amino)methyl)phenyl)acetate] | 251
CCCCc1nc2c(N)nc3ccccc3c2n1CCCN(CCCN1CCN(C)CC1)Cc1cccc(CC(=O)OC)c1 [Example 14, Methyl 2-(3-(((3-(4-amino-2-butyl-1H-imidazo[4,5-c]quinolin-1-yl)propyl)(3-(4-methylpiperazin-1-yl)propyl)amino)methyl)phenyl)acetate] | 251
CCCCc1nc2c(N)nc3ccccc3c2n1CCCN(Cc1ccc(CC(=O)OC)cc1)C(=O)CS(C)(=O)=O [Example 15, Methyl 2-(4-((N-(3-(4-amino-2-butyl-1H-imidazo[4,5-c]quinolin-1-yl)propyl)-2-(methylsulfonyl)acetamido)methyl)phenyl)acetate] | 398
CCCCc1nc2c(N)nc3ccccc3c2n1CCCN(Cc1ccc(CC(=O)OC)cc1)C(=O)CN1CCN(C(C)=O)CC1 [Example 19, Methyl 2-(4-((2-(4-acetylpiperazin-1-yl)-N-(3-(4-amino-2-butyl-1H-imidazo[4,5-c]quinolin-1-yl)propyl)acetamido)methyl)phenyl)acetate] | 251
CCCCc1nc2c(N)nc3ccccc3c2n1CCCN(Cc1ccc(CC(=O)OC)cc1)C(=O)CN1CC[C@@H](O)C1 [Example 20, (R)-Methyl 2-(4-((N-(3-(4-amino-2-butyl-1H-imidazo[4,5-c]quinolin-1-yl)propyl)-2-(3-hydroxypyrrolidin-1-yl)acetamido)methyl)phenyl)acetate] | 251
CCCCc1nc2c(N)nc3ccccc3c2n1CCCN(Cc1ccc(CC(=O)OC)cc1)C(=O)CN1CCN(c2ncccn2)CC1 [Example 21, Methyl 2-(4-((N-(3-(4-amino-2-butyl-1H-imidazo[4,5-c]quinolin-1-yl)propyl)-2-(4-(pyrimidin-2-yl)piperazin-1-yl)acetamido)methyl)phenyl)acetate] | 631
CCCCc1nc2c(N)nc3ccccc3c2n1CCCN(Cc1ccc(CC(=O)OC)cc1)C(=O)CN1CCN(C(=O)OCC)CC1 [Example 22, Ethyl 4-(2-((3-(4-amino-2-butyl-1H-imidazo[4,5-c]quinolin-1-yl)propyl)(4-(2-methoxy-2-oxoethyl)benzyl)amino)-2-oxoethyl)piperazine-1-carboxylate] | 631
CCCCc1nc2c(N)nc3ccccc3c2n1CCCN(Cc1ccc(CC(=O)OC)cc1)C(=O)CN1CCN(S(=O)(=O)CC)CC1 [Example 23, Methyl 2-(4-((N-(3-(4-amino-2-butyl-1H-imidazo[4,5-c]quinolin-1-yl)propyl)-2-(4-(ethylsulfonyl)piperazin-1-yl)acetamido)methyl)phenyl)acetate] | 251

Further compounds by falling EC50, results first:

EC50 [nM] | Compound
251 | CCCCc1nc2c(N)nc3ccccc3c2n1CCCN(CCN(C)C)Cc1ccc(CC(=O)OC)cc1 [Example 6, Methyl[4-({[3-(4-amino-2-butyl-1H-imidazo[4,5-c]quinolin-1-yl)propyl][2-(dimethylamino)ethyl]amino}methyl)phenyl]acetate]
251 | CCCCc1nc2c(N)nc3ccccc3c2n1CCCN(CCCN(C)C)Cc1cccc(CC(=O)OC)c1 [Example 11, Methyl 2-(3-(((3-(4-amino-2-butyl-1H-imidazo[4,5-c]quinolin-1-yl)propyl)(3-(dimethylamino)propyl)amino)methyl)phenyl)acetate]
158 | CCCCc1nc2c(N)nc3ccccc3c2n1CCCN(CCCN(C)CC)Cc1cccc(CC(=O)OC)c1 [Example 13, Methyl 2-(3-(((3-(4-amino-2-butyl-1H-imidazo[4,5-c]quinolin-1-yl)propyl)(3-(ethyl(methyl)amino)propyl)amino)methyl)phenyl)acetate]
158 | CCCCc1nc2c(N)nc3ccccc3c2n1CCCN(Cc1ccc(CC(=O)OC)cc1)C(=O)CN1CCOCC1 [Example 17, Methyl 2-(4-((N-(3-(4-amino-2-butyl-1H-imidazo[4,5-c]quinolin-1-yl)propyl)-2-morpholinoacetamido)methyl)phenyl)acetate]
126 | CCCCc1nc2c(N)nc3ccccc3c2n1CCCN(Cc1ccc(CC(=O)OC)cc1)C(C)=O [Example 16, Methyl 2-(4-((N-(3-(4-amino-2-butyl-1H-imidazo[4,5-c]quinolin-1-yl)propyl)acetamido)methyl)phenyl)acetate]
79.4 | CCCCc1nc2c(N)nc3ccccc3c2n1CCCN(Cc1ccc(CC(=O)OC)cc1)C(=O)CN1CCCCC1 [Example 24, Methyl 2-(4-((N-(3-(4-amino-2-butyl-1H-imidazo[4,5-c]quinolin-1-yl)propyl)-2-(piperidin-1-yl)acetamido)methyl)phenyl)acetate]
63.1 | CCCCc1nc2c(N)nc3ccccc3c2n1CCCN(Cc1ccc(CC(=O)OC)cc1)C(=O)CN(C)CCOC [Example 18]
39.8 | CCCCc1nc2c(N)nc3ccccc3c2n1CCCN(Cc1cccc(CC(=O)OC)c1)C(=O)CN(C)C [Example 4, Methyl 2-(3-((N-(3-(4-amino-2-butyl-1H-imidazo[4,5-c]quinolin-1-yl)propyl)-2-(dimethylamino)acetamido)methyl)phenyl)acetate]
